Drawing on ChEMBL document CHEMBL1157918, “The development and SAR of pyrrolidine carboxamide 11beta-HSD1 inhibitors” (Bioorg Med Chem Lett, 2010), this text covers CLint scaled and inhibition in vivo for twelve compounds.

A short description of one data set: in vitro. The following applies: human, liver microsomes. (Liver microsomes are vesicles of endoplasmic reticulum, rich in cytochrome P450 enzymes.)
For data set [1], the species on record is Mus musculus. Kind of data set: animal or person. The following applies: C57BL, Plasma, po, read-out: INH.
Description: Inhibition of 11-beta-HSD1 in C57BL mouse assessed as reduction of plasma cortisol level at 1 mg/kg, po administered 30 mins before cortisone challenge measured after 60 mins by ELISA relative to control
Data set [2] is filed under the species Mus musculus. Kind of data set: animal or person. The settings on record: C57BL, Plasma, po, read-out: INH. The source holds these as a separate data set.
Description: Inhibition of 11-beta-HSD1 in C57BL mouse assessed as reduction of plasma cortisol level at 3 mg/kg, po administered 30 mins before cortisone challenge measured after 60 mins by ELISA relative to control
The species named for data set [3] is Mus musculus. Kind of data set: animal or person. The settings on record: C57BL, Plasma, po, read-out: INH. This is another data set of the same source.
Description: Inhibition of 11-beta-HSD1 in C57BL mouse assessed as reduction of plasma cortisol level at 10 mg/kg, po administered 30 mins before cortisone challenge measured after 60 mins by ELISA relative to control
The species named for data set [4] is Mus musculus. Briefly: animal or person. The following applies: C57BL, Plasma, po, read-out: INH. This is another data set of the same source.
Description: Inhibition of 11-beta-HSD1 in C57BL mouse assessed as reduction of plasma cortisol level at 30 mg/kg, po administered 30 mins before cortisone challenge measured after 60 mins by ELISA relative to control
For data set [5], the species on record is Mus musculus. Kind of data set: animal or person. The following applies: C57BL, Plasma, po, read-out: INH. The source holds these as a separate data set.
Description: Inhibition of 11-beta-HSD1 in C57BL mouse assessed as reduction of plasma cortisol level at 100 mg/kg, po administered 30 mins before cortisone challenge measured after 60 mins by ELISA relative to control

Description for in vitro: Intrinsic clearance in human liver microsomes

One may read the CLint scaled as the rate of metabolic loss divided by the concentration. The low end stands for slow turnover, the high end for rapid turnover. In the case of `CN1CCC[C@@H]1C(=O)NC1C2CC3CC(C2)CC1C3` (some centres not stated), the CLint scaled in the data set “in vitro” worked out at 22.2 mL/min/kg.
With `CCCN1CCC[C@@H]1C(=O)NC1C2CC3CC(C2)CC1C3` (some centres not stated), in “in vitro”, the CLint scaled was 93.3 mL/min/kg.
For the compound `CCN1CCC[C@@H]1C(=O)NC1C2CC3CC(C2)CC1C3` (some centres not stated), in “in vitro”, the intrinsic metabolic clearance (CLint scaled) came out at 43.9 mL/min/kg. In the data set filed under Mus musculus [1], the inhibition in vivo at 1 mg/kg was found to be 52%. The inhibition in vivo at 3 mg/kg in the data set filed under Mus musculus [2] came to 46%. Moreover, in the data set filed under Mus musculus [3], the inhibition in vivo at 10 mg/kg turned out to be 23%. Besides, the inhibition in vivo at 30 mg/kg in the data set filed under Mus musculus [4] was 20%. Besides, the inhibition in vivo at 100 mg/kg in the data set filed under Mus musculus [5] is 18%.
With `O=C(NC1C2CC3CC(C2)CC1C3)[C@H]1CCCN1c1ccccn1` (some centres not stated), in the data set “in vitro”, the CLint scaled is 79.2 mL/min/kg.
Take `O=C(NC1C2CC3CC(C2)CC1C3)[C@H]1CCCN1CC1CCOCC1` (some centres not stated): the CLint scaled in “in vitro” stood at 20.3 mL/min/kg.
`O=C(NC1C2CC3CC(C2)CC1C3)[C@H]1CCCN1CC1(O)CCCC1` (some centres not stated) showed an intrinsic clearance (CLint scaled) in “in vitro” of 86.2 mL/min/kg.
In “in vitro”, `O=C(NC1C2CC3CC(C2)CC1C3)[C@H]1CCCN1CC1(O)CCCCC1` (some centres not stated) gave a CLint scaled of 64.6 mL/min/kg.
In the data set “in vitro”, `O=C(NC1C2CC3CC(C2)CC1C3)[C@H]1CCCN1CC1CCCC1` (some centres not stated) gave a CLint scaled of 75.3 mL/min/kg.
Still for that read-out and setting: then `O=C(NC1C2CC3CC(C2)CC1C3)[C@H]1CCCN1CC1CCCCC1` (some centres not stated), with 62.8 mL/min/kg; and `CC(C)CN1CCC[C@@H]1C(=O)NC1C2CC3CC(C2)CC1C3` (some centres not stated), with 79.3 mL/min/kg.
Turning to `O=C(NC1C2CC3CC(C2)CC1C3)[C@H]1CCCN1CC1CCC1` (some centres not stated), in “in vitro”, the CLint scaled was 85.8 mL/min/kg. The CLint scaled values of the last two compounds are within 1.5-fold of each other.
In the case of `N#Cc1ccc(CN2CCC[C@@H]2C(=O)NC2C3CC4CC(C3)CC2C4)cc1` (some centres not stated), the CLint scaled in “in vitro” stood at 73.2 mL/min/kg.
